Molecules are shown by their SMILES.

In this assay the target is T1, Full length human CDC7 protein co-expressed with DBF4 (Homo sapiens, UniProt O00311).
T1 construct: Full length human CDC7 protein co-expressed with DBF4; purchased SignalChem (China)
The assay is described as follows: CDC7 Kinase Biochemical Assay (ADP-Glo, PDKtide substrate). The following applies: 0.1 nM CDC7/DBF4, 1 μM ATP, 10 μM PDKtide, 4 h reaction. On the procedure:
CDC7 Kinase Biochemical Assay PROTOCOL:
Full length human CDC7 protein co-expressed with DBF4 was purchased from SignalChem (China). CDC7 kinase activity was determined with PDKtide (SignalChem) as a substrate and by measuring ADP production using the ADP-Glo™ Kinase Assay kit (Promega) following the manufacturer's instructions. The kinase reaction was performed using the following conditions: Buffer: 40 mM Tris pH 7.5, 20 mM MgCl2, 0.1 mg/mL BSA and 50 μM DTT. Final reaction mix contained 0.1 nM CDC7/DBF4, 1 μM ATP and 10 μM PDKtide. The kinase reaction time was 4 h. The ADP-Glo signal was measured using an EnVision plate reader (PerkinELmer).
Percent inhibition of CDC7 kinase activity was calculated based on the following formula:
[formula] • SSample: the signal of compounds • SHigh Ctrl: the signal of high control (DMSO) • SLow Ctrl: the signal of low control (positive control CDC7 inhibitor)

T1 sequence (O00311 whole entry): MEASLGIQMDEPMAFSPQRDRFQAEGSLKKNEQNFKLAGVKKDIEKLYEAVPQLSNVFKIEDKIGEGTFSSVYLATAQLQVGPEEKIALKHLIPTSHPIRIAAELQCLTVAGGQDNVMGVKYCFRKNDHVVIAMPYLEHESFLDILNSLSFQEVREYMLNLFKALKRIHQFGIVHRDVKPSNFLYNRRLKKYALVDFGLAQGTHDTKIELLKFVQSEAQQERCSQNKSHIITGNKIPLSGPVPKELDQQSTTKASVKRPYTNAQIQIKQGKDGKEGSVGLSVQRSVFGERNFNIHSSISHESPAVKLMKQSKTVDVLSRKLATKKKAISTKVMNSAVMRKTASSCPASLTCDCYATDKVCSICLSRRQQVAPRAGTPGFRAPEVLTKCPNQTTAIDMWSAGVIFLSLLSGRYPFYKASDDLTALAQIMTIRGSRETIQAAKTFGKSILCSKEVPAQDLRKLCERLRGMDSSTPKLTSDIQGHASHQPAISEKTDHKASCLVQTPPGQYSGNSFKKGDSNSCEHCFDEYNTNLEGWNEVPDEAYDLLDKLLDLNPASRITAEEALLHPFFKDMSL
T1 sequence (Q9UBU7 whole entry partner): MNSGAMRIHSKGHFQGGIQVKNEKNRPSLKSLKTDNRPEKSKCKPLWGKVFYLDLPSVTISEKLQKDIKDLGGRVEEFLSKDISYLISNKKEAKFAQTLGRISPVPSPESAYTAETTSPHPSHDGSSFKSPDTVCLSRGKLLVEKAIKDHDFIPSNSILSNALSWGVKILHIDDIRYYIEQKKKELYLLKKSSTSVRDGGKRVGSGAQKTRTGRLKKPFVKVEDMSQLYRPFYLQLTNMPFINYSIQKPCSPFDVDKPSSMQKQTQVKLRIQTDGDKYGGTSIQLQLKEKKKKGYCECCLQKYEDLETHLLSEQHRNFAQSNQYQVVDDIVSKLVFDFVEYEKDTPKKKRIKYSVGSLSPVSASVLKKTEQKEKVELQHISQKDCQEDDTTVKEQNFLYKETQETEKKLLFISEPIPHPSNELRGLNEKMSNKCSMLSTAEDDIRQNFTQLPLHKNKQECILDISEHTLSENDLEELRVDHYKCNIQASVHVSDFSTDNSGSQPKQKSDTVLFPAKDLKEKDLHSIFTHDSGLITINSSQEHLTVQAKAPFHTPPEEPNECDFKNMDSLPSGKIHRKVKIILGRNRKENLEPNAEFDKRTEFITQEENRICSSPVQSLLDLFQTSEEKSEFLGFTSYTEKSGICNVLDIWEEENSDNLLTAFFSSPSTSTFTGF

In general, IC50 refers to the point on the concentration scale where inhibition reaches its midpoint. A low value points to inhibition by little substance. Take `O=c1[nH]c2c(c3cc(-c4cn[nH]c4)sc13)CCC[C@H]2O` (single isomer, unassigned) [Compound 4]: the IC50 was not above 1 nM.

In turn, `COC1(C)CCCc2[nH]c(=O)c3sc(-c4cn[nH]c4)cc3c21` (single isomer, unassigned) [Compound 39] gave an IC50 not above 1 nM.

As to `O=c1[nH]c2c(c3cc(-c4cn[nH]c4)sc13)COCC2(O)C(F)(F)F` (single isomer, unassigned) [Compound 28], the IC50 was not above 1 nM. To `Cc1n[nH]cc1-c1cc2c3c([nH]c(=O)c2s1)C(O)(C(F)(F)F)COC3` (single isomer, unassigned) [Compound 33] belongs 1 to 10 nM; to `CC(C)(O)C1(C)OCCc2c1[nH]c(=O)c1sc(-c3cn[nH]c3)cc21` (single isomer, unassigned) [Compound 57], 1 to 10 nM.

Compound `CC[C@@H](C)[C@@]1(O)COCc2c1[nH]c(=O)c1sc(-c3cn[nH]c3)cc21` (single isomer, unassigned) [Compound 76] yielded an IC50 not above 1 nM. Regarding `Cc1cc(-c2cc3c4c([nH]c(=O)c3s2)C(O)(C(C)(C)C)COC4)ccn1` (single isomer, unassigned) [Compound 62], the IC50 is more than 10 nM. The figure for `CC1(CO)OCCc2c1[nH]c(=O)c1sc(-c3cn[nH]c3)cc21` (single isomer, unassigned) [Compound 34] is more than 10 nM; for `CNC1(C)COCc2c1[nH]c(=O)c1sc(-c3cn[nH]c3)cc21` (stereo not drawn) [Compound 84, 4-methyl-4-(methylamino)-8-(1H-pyrazol-4-yl)-1,3,4,5-tetrahydro-6H-pyrano[4,3-b]thieno[3,2-d]pyridin-6-one] it is not above 1 nM. To `CC1(O)CC(F)(F)Cc2c1[nH]c(=O)c1sc(-c3cn[nH]c3)cc21` (single isomer, unassigned) [Compound 55] belongs 1 to 10 nM; to `CCC(C)(C)C1(O)COCc2c1[nH]c(=O)c1sc(-c3cn[nH]c3)cc21` (single isomer, unassigned) [Compound 81], not above 1 nM. As for `CC(C)(C)C1(O)COCc2c1[nH]c(=O)c1sc(-c3c[nH]nc3F)cc21` (single isomer, unassigned) [Compound 65], the IC50 was more than 10 nM.

With `COCC1(O)CC(F)(F)Cc2c1[nH]c(=O)c1sc(-c3cn[nH]c3)cc21` (single isomer, unassigned) [Compound 49], the IC50 was not above 1 nM. As for `CC(C)C1(O)CCCc2c1[nH]c(=O)c1sc(-c3cn[nH]c3)cc21` (single isomer, unassigned) [Compound 88], the IC50 lay in the range of 1 to 10 nM.

On to `CC(C)C1(O)CCCc2c1[nH]c(=O)c1sc(-c3cn[nH]c3)cc21` (single isomer, unassigned) [Compound 87], for which the IC50 was not above 1 nM. To `CC(C)C1(O)COCc2c1[nH]c(=O)c1sc(-c3ccncc3)cc21` (single isomer, unassigned) [Compound 45] belongs more than 10 nM.

`O=c1[nH]c2c(c3cc(-c4cn[nH]c4)sc13)COCC2(O)C1CCCC1` (single isomer, unassigned) [Compound 79] yielded an IC50 of 1 to 10 nM. To `O=c1[nH]c2c(c3cc(-c4cn[nH]c4)sc13)CC(F)(F)C[C@@H]2N1CCC1` (single isomer, unassigned) [Compound 13] belongs not above 1 nM; to `O=c1[nH]c2c(c3cc(-c4cn[nH]c4)sc13)CCCC2` [Compound 1, 2-(1H-pyrazol-4-yl)-6,7,8,9-tetrahydrothieno[2,3-c]quinolin-4(5H)-one], not above 1 nM; to `CN(C)C1(C)COCc2c1[nH]c(=O)c1sc(-c3cn[nH]c3)cc21` (single isomer, unassigned) [Compound 83], 1 to 10 nM. To `CC(C)(C)C1(O)COCc2c1[nH]c(=O)c1sc(-c3ncncc3Cl)cc21` (single isomer, unassigned) [Compound 64] belongs 1 to 10 nM; to `CC(=O)N1Cc2c([nH]c(=O)c3sc(-c4cn[nH]c4)cc23)C(O)(C(C)(C)C)C1` (stereo not drawn) [Compound 94, 2-acetyl-4-tert-butyl-4-hydroxy-8-(1H-pyrazol-4-yl)-3,5-dihydro-1H-thieno[2,3-c][1,6]naphthyridin-6-one], not above 1 nM. The figure for `Cc1n[nH]cc1-c1cc2c3c([nH]c(=O)c2s1)C(O)(C(C)C)COC3` (single isomer, unassigned) [Compound 24] is not above 1 nM. Compound `CC(C)(C)[C@]1(O)COCc2c1[nH]c(=O)c1sc(-c3ccncc3)cc21` (single isomer, unassigned) [Compound 23] yielded an IC50 of more than 10 nM. The figure for `CC1(CO)OCCc2c1[nH]c(=O)c1sc(-c3cn[nH]c3)cc21` (single isomer, unassigned) [Compound 35] is not above 1 nM; for `CC(C)(C)[C@]1(O)COCc2c1[nH]c(=O)c1sc(-c3cn[nH]c3)cc21` (single isomer, unassigned) [Compound 21] it is 1 to 10 nM. The figure for `CCC1(O)COCc2c1[nH]c(=O)c1sc(-c3cn[nH]c3)cc21` (single isomer, unassigned) [Compound 19] is more than 10 nM; for `CC(C)(C)C1(O)COCc2c1[nH]c(=O)c1sc(-c3ccncc3F)cc21` (single isomer, unassigned) [Compound 60] it is 1 to 10 nM. In the case of `O=c1[nH]c2c(c3cc(-c4cn[nH]c4)sc13)CCC[C@H]2N1CCC(F)(F)C1` (single isomer, unassigned) [Compound 5], the IC50 is not above 1 nM. To `CCC1(O)CC(F)(F)Cc2c1[nH]c(=O)c1sc(-c3cn[nH]c3)cc21` (single isomer, unassigned) [Compound 50] belongs 1 to 10 nM. To `CC(F)(F)C1(O)COCc2c1[nH]c(=O)c1sc(-c3cn[nH]c3)cc21` (single isomer, unassigned) [Compound 95] belongs 1 to 10 nM; to `CCC(C)(C)C1(O)COCc2c1[nH]c(=O)c1sc(-c3cn[nH]c3)cc21` (single isomer, unassigned) [Compound 80], more than 10 nM; to `COC1(C)CC(F)(F)Cc2c1[nH]c(=O)c1sc(-c3cn[nH]c3)cc21` (single isomer, unassigned) [Compound 52], 1 to 10 nM. To `CC(C)(C)C1(O)COCc2c1[nH]c(=O)c1sc(-c3ccnnc3)cc21` (single isomer, unassigned) [Compound 68] belongs more than 10 nM; to `CC(F)(F)CC1(O)COCc2c1[nH]c(=O)c1sc(-c3cn[nH]c3)cc21` (stereo not drawn) [Compound 86, 4-(2,2-difluoropropyl)-4-hydroxy-8-(1H-pyrazol-4-yl)-1,3,4,5-tetrahydro-6H-pyrano[4,3-b]thieno[3,2-d]pyridin-6-one], not above 1 nM. Regarding `CC[C@H](C)[C@]1(O)COCc2c1[nH]c(=O)c1sc(-c3cn[nH]c3)cc21` (single isomer, unassigned) [Compound 77], the half-maximal inhibitory concentration (IC50) is not above 1 nM. To `Cc1n[nH]cc1-c1cc2c3c([nH]c(=O)c2s1)C(O)(C(C)(C)C)COC3` (single isomer, unassigned) [Compound 92] belongs not above 1 nM. The figure for `C[C@@]1(CO)CC(F)(F)Cc2c1[nH]c(=O)c1sc(-c3cn[nH]c3)cc21` (single isomer, unassigned) [Compound 15] is not above 1 nM; for `CC(C)(C)C1(O)COCc2c1[nH]c(=O)c1sc(-c3ccnnc3)cc21` (single isomer, unassigned) [Compound 67] it is not above 1 nM. The figure for `CN(C)C1(C)COCc2c1[nH]c(=O)c1sc(-c3cn[nH]c3)cc21` (single isomer, unassigned) [Compound 82] is 1 to 10 nM.

As for `O=c1[nH]c2c(c3cc(-c4cn[nH]c4)sc13)COCC2(O)C(F)F` (single isomer, unassigned) [Compound 43], the IC50 lay within 1 to 10 nM.

Regarding `CC(F)(F)C1(O)COCc2c1[nH]c(=O)c1sc(-c3cn[nH]c3)cc21` (single isomer, unassigned) [Compound 96], the IC50 was not above 1 nM.

Regarding `CCC(C)C1(O)COCc2c1[nH]c(=O)c1sc(-c3cn[nH]c3)cc21` (single isomer, unassigned) [Compound 75], the IC50 was more than 10 nM. The figure for `CO[C@H]1COCc2c1[nH]c(=O)c1sc(-c3cn[nH]c3)cc21` (single isomer, unassigned) [Compound 10] is not above 1 nM; for `O=c1[nH]c2c(c3cc(-c4cn[nH]c4)sc13)CCC[C@@H]2O` (single isomer, unassigned) [Compound 3] it is 1 to 10 nM. `CC#CC1(O)COCc2c1[nH]c(=O)c1sc(-c3cn[nH]c3)cc21` (single isomer, unassigned) [Compound 72]: the IC50 is 1 to 10 nM. The figure for `O=c1[nH]c2c(c3cc(-c4ccncc4)sc13)C1CCC2(O)CC1` [Compound 9, 6-hydroxy-2-(pyridin-4-yl)-6,7,8,9-tetrahydro-6,9-ethanothieno[2,3-c]quinolin-4(5H)-one] is not above 1 nM; for `CC(C)C1(O)COCc2c1[nH]c(=O)c1sc(-c3cn[nH]c3)cc21` (single isomer, unassigned) [Compound 17] it is 1 to 10 nM; for `CC1(O)CC(F)(F)Cc2c1[nH]c(=O)c1sc(-c3cn[nH]c3)cc21` (single isomer, unassigned) [Compound 54] it is not above 1 nM. To `COCC1(O)CC(F)(F)Cc2c1[nH]c(=O)c1sc(-c3cn[nH]c3)cc21` (single isomer, unassigned) [Compound 48] belongs more than 10 nM; to `Cn1nccc1-c1cc2c3c([nH]c(=O)c2s1)C(O)(C(C)(C)C)COC3` (single isomer, unassigned) [Compound 90], more than 10 nM.

Values taken from patent publication US20240199634A1, “CYCLIC COMPOUNDS AND METHODS OF USING SAME” (SCHRÖDINGER, INC., priority 2021, published 2024).
